Values of other authors as cited in paper PMC5526139 (Xenobiotica; the Fate of Foreign Compounds in Biological …, 2016).

Design: method as in Zhang et al., 2011
Settings: ref Zhang et al., 2011

half-life in Phase 1 clinical trial (man): 0.7 h | predicted half-life in man (prediction before the clinical trial): 6 h
SMILES: CC(O)Cn1c(=O)c(Oc2ccc(F)cc2F)cc2cnc(NC(C)CO)nc21 (centres unmarked) [6-(2,4-difluorophenoxy)-2-[(1-hydroxypropan-2-yl)amino]-8-(2-hydroxypropyl)-7H,8H-pyrido[2,3-d]pyrimidin-7-one]
